Measurements: paper PMC5408651 (Journal of visualized experiments : JoVE, 2017)

Key:
extracellular matrix = assay: alterations in extracellular matrix of tight-skin mouse; assay type: in vivo, Tsk/+ mice; conditions: tight-skin mouse (Tsk/+); abstract statement, no data shown
neutrophils (NIMP) = conditions: Tsk/+ mice, IRF5D 1 mg/kg/d subcutaneously, 21 d; Tsk/+ vs. Tsk/+ + IRF5D p<0.025; mean ± SD, n=3, 10 images per antibody; ref [21]; cited from earlier work
[1] = system: monocytes/macrophages (CD64); conditions: Tsk/+ mice, IRF5D 1 mg/kg/d subcutaneously, 21 d; Tsk/+ vs. Tsk/+ + IRF5D p<0.025; mean ± SD, n=3, 10 images per antibody; ref [21]; cited from earlier work

For Ac-ELDWDADDIRLQIDNPD-NH2 [IRF5D], the “alterations in extracellular matrix” value (extracellular matrix) is listed as “reduced alterations in extracellular matrix”, the “number of neutrophils (NIMP) in the heart” value (neutrophils (NIMP)) is listed as “decreased” and the “number of monocytes/macrophages (CD64) in the heart” value [1] is listed as “decreased”.
